# In ChEMBL document CHEMBL5244281, “Tackling multidrug-resistant Staphylococcus aureus by natural products and their analogues acting as NorA efflux pump inhibitors” (Bioorg Med Chem, 2023):
# Key:
# [1] = tested on: Staphylococcus aureus; assay: Antimicrobial activity against Staphylococcus aureus ATCC 43300 assessed as bacterial growth inhibition incubated for 18 hrs by broth microdilution assay; format: functional
# [2] = tested on: Escherichia coli; assay: Antimicrobial activity against Escherichia coli ATCC 25922 assessed as bacterial growth inhibition incubated for 18 hrs by broth microdilution assay; format: functional
# [3] = tested on: Enterococcus faecium; assay: Antimicrobial activity against Enterococcus faecium ATCC 700221 assessed as bacterial growth inhibition incubated for 18 hrs by broth microdilution assay; format: functional
# [4] = tested on: Enterococcus faecalis; assay: Antimicrobial activity against Enterococcus faecalis ATCC 29212 assessed as bacterial growth inhibition incubated for 18 hrs by broth microdilution assay; format: functional
# [5] = tested on: Klebsiella pneumoniae; assay: Antimicrobial activity against Klebsiella pneumoniae 1213-2 assessed as bacterial growth inhibition incubated for 18 hrs by broth microdilution assay; format: functional
# [6] = tested on: Staphylococcus aureus; assay: Antimicrobial activity against Staphylococcus aureus ATCC 29213 assessed as bacterial growth inhibition incubated for 18 hrs by broth microdilution assay; format: functional
# [7] = tested on: Staphylococcus aureus; assay: Antimicrobial activity against Staphylococcus aureus BAA-44 assessed as bacterial growth inhibition incubated for 18 hrs by broth microdilution assay; format: functional
# [8] = tested on: Escherichia coli; assay: Potentiation of gentamicin-induced antibacterial activity against Escherichia coli 06 assessed as gentamicin MIC at 1/8 times of MIC (Rvb= 322 ug/ml); format: functional
# [9] = biological target: T1, Quinolone resistance protein NorA (Staphylococcus aureus) (UniProt P0A0J7); assay: Potentiation of EtBr-induced inhibition of NorA efflux pump in Staphylococcus aureus 1199B overexpressing NorA efflux pump assessed as reduction in EtBr MIC at 1/8 times of MIC by resazurin based assay (Rvb= 512 ug/ml)
# T1 sequence (whole entry): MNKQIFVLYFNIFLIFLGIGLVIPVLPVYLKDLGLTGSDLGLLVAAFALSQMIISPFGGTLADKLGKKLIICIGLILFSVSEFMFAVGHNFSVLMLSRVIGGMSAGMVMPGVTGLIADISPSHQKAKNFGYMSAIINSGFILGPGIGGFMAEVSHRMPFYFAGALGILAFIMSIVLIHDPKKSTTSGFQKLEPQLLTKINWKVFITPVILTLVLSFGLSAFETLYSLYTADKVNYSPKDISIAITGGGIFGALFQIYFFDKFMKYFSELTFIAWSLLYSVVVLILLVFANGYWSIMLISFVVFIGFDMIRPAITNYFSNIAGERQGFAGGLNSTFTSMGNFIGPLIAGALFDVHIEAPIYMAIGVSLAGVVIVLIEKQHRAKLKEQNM
# [10] = tested on: Staphylococcus aureus; assay: Antibacterial activity against Staphylococcus aureus 1199B overexpressing NorA efflux protein assessed as bacterial growth inhibition incubated for 24 hrs by microdilution method; format: functional
# [11] = tested on: Staphylococcus aureus; assay: Antibacterial activity against wild type Staphylococcus aureus ATCC 25923 assessed as bacterial growth inhibition incubated for 24 hrs by microdilution method; format: functional
# [12] = tested on: Candida albicans; assay: Antimicrobial activity against Candida albicans ATCC 10231 assessed as […] growth inhibition incubated for 24 hrs by microdilution method; format: functional
# [13] = biological target: T1, Quinolone resistance protein NorA (Staphylococcus aureus); conditions: 1199B
# [14] = tested on: Escherichia coli; assay: Antibacterial activity against Escherichia coli ATCC 25922 assessed as bacterial growth inhibition incubated for 24 hrs by microdilution method; format: functional
# [15] = tested on: Staphylococcus aureus; assay: Synergistic antibacterial activity against Staphylococcus aureus 1199B overexpressing NorA gene assessed as fractional inhibitory concentration index at 2 ug/ml in presence of norfloxacin; format: functional; conditions: dose 2 µg/ml
# [16] = tested on: Staphylococcus aureus; assay: Antibacterial activity against methicillin-resistant Staphylococcus aureus 1199B overexpressing NorA gene assessed as bacterial growth inhibition; format: functional
# [17] = tested on: Staphylococcus aureus; assay: Antibacterial activity against norfloxacin resistant Staphylococcus aureus 1199 assessed as bacterial growth inhibition; format: functional
# [18] = tested on: Staphylococcus aureus; assay: Antibacterial activity against norfloxacin resistant Staphylococcus aureus 1199B overexpressing NorA assessed as bacterial growth inhibition; format: functional
# [19] = tested on: Staphylococcus aureus; assay: Synergistic antibacterial activity against methicillin-resistant Staphylococcus aureus clinical isolate assessed as fractional inhibitory concentration index in presence of ciprofloxacin by checkerboard assay; format: functional
# [20] = tested on: Staphylococcus aureus; assay: Antibacterial activity against methicillin-resistant Staphylococcus aureus clinical isolate assessed as bacterial growth inhibition by broth dilution method; format: functional
# [21] = biological target: T1, Quinolone resistance protein NorA (Staphylococcus aureus); assay: Inhibition of NorA efflux pump in methicillin-resistant Staphylococcus aureus clinical isolate assessed as decrease in ciprofloxacin MIC and measured for 20 mins in presence of ciprofloxacin by spectrofluorimetric analysis (Rvb=128 ug/ml)
# [22] = biological target: T1, Quinolone resistance protein NorA (Staphylococcus aureus); assay: Inhibition of NorA efflux pump in methicillin-resistant Staphylococcus aureus clinical isolate assessed as EtBr MIC using EtBr as substrate at 64 ug/ml and measured for 20 mins by spectrofluorimetric analysis (Rvb=[…] ug/ml); conditions: dose 64.0 µg/ml
# [23] = biological target: T1, Quinolone resistance protein NorA (Staphylococcus aureus); assay: Potentiation of ciprofloxacin-mediated inhibition of NorA efflux pump in Staphylococcus aureus 1199B overexpressing NorA efflux pump assessed as reduction in ciprofloxacin MIC (Rvb= […] ug/ml)
# [24] = tested on: Staphylococcus aureus; assay: Antibacterial activity against Staphylococcus aureus RN4220 assessed as bacterial growth inhibition incubated for 18 hrs by MTT assay; format: functional
# [25] = tested on: Staphylococcus aureus; assay: Antibacterial activity against Staphylococcus aureus EMRSA-15 assessed as bacterial growth inhibition incubated for 18 hrs by MTT assay; format: functional
# [26] = tested on: Staphylococcus aureus; assay: Synergistic antibacterial activity against Staphylococcus aureus 1199B overexpressing NorA assessed as fractional Inhibitory concentration index at 64 ug/ml in presence of norfloxacin by broth dilution method; format: functional; conditions: dose 64 µg/ml
# [27] = tested on: Staphylococcus aureus; assay: Antibacterial activity against Staphylococcus aureus ATCC25923 assessed as bacterial growth inhibition incubated for 18 hrs by MTT assay; format: functional
# [28] = tested on: Staphylococcus aureus; assay: Antibacterial activity against tetracycline-resistant Staphylococcus aureus XU212 assessed as bacterial growth inhibition incubated for 18 hrs by MTT assay; format: functional
# [29] = tested on: Staphylococcus aureus; assay: Antibacterial activity against Staphylococcus aureus EMRSA-16 assessed as bacterial growth inhibition incubated for 18 hrs by MTT assay; format: functional
# [30] = tested on: Staphylococcus aureus; assay: Antibacterial activity against Staphylococcus aureus 1199B overexpressing NorA assessed as bacterial growth inhibition incubated for 18 hrs by MTT assay; format: functional
# [31] = biological target: T1, Quinolone resistance protein NorA (Staphylococcus aureus); conditions: 1199B, dose 64.0 µg/ml
smiles,measurement,setting,value
CN(CC[C@H](N)CC(=O)N[C@H]1C=C[C@H](n2ccc(N)nc2=O)O[C@@H]1C(N)=O)C(=N)N,MIC,[1],12.5 µg/mL
same,MIC,[2],12.5 µg/mL
same,MIC,[3],50 µg/mL
same,MIC,[4],12.5 µg/mL
same,MIC,[5],50 µg/mL
same,MIC,[6],6.25 µg/mL
same,MIC,[7],12.5 µg/mL
CC1(C)CC[C@]2(C)CC[C@]3(C)C(=CC[C@@H]4[C@@]5(C)CC[C@H](O)C(C)(C)[C@@H]5CC[C@]43C)[C@@H]2C1 [beta-AMYRIN],MIC,[8],203 µg/mL
same,MIC,[9],406 µg/mL
COc1ccc(/C=C/[C@@H]2c3c(cc(O)cc3OC)C[C@H]3c4ccc(O)cc4O[C@H](c4ccccc4)[C@@H]23)cc1,MIC,[10],> 1020 µg/mL
same,MIC,[11],> 1020 µg/mL
same,MIC,[12],161 µg/mL
same,MIC,[13],16 µg/mL
same,MIC,[14],> 1020 µg/mL
COc1cc2oc(-c3ccc(O)cc3)c(OC)c(=O)c2c(O)c1OC [PENDULETIN],fractional inhibitory concentration index (FICI),[15],0.079
same,MIC,[16],256 µg/mL
C=C1CCC2CC1C2(C)C (stereo not drawn) [BETA-PINENE],MIC,[17],> 1020 µg/mL
same,MIC,[18],> 1020 µg/mL
COc1cc(O)cc2c1[C@@H](/C=C/c1ccc(O)cc1)[C@@H]1[C@@H](c3ccccc3)Oc3cc(O)ccc3[C@@H]1O2,MIC,[10],> 1020 µg/mL
same,MIC,[11],> 1020 µg/mL
same,MIC,[12],> 1020 µg/mL
same,MIC,[14],> 1020 µg/mL
CCN(CC)C(=O)/C=C/c1ccc(OC(C)=O)c(OC)c1,fractional inhibitory concentration index (FICI),[19],0.325
same,MIC,[20],> 125 µg/mL
same,MIC,[21],32 µg/mL
same,MIC,[22],4 µg/mL
CCOC(=O)/C=C/C(C)=C/c1ccc2c(c1)CCC(C)(C)O2,MIC,[23],3.12 µg/mL
O=c1c(-c2ccc(O)cc2)coc2cc(O)cc(O)c12 [GENISTEIN],MIC,[24],32 µg/mL
same,MIC,[25],32 µg/mL
same,fractional inhibitory concentration index (FICI),[26],0.38
same,MIC,[27],32 µg/mL
same,MIC,[28],32 µg/mL
same,MIC,[29],8 µg/mL
same,MIC,[30],32 µg/mL
same,MIC,[31],16 µg/mL
COc1cc(-c2cc(=O)c3c(O)cc(O)cc3o2)ccc1O [CHRYSOERIOL],fractional inhibitory concentration index (FICI),[15],0.266
same,MIC,[16],256 µg/mL
